Measurements: article PMC12736535, “Generation and Characterization of Novel Contilisant+Tubastatin a Multitarget Small Molecules Against Glioblastoma” (Pharmaceutics, 2025)
Where two headings read alike, the source gives them in different places.

Experiments:
[1] = test system: MKN45 gastric cancer cells; experiment: MTT cell viability, MKN45; format: cell-based; conditions: Homo sapiens, MKN-45, 72 h
Protocol: (§1) U87-MG, U251-MG and NCI-H1299 cells were purchased from ATCC, while MKN45 was obtained from the Leibniz Institute DSMZ-German Collection of Microorganisms and Cell Cultures and the RWP1 cell line was kindly provided by Dr. Francisco Real. Cells were cultured in DMEM or RPMI (Gibco, Waltham, MA, USA) supplemented with 10% FBS, 100 U/mL penicillin and streptomycin and 2 mM L-Glutamine. Patient-derived glioma neural stem cells (GNS166 and GNS179) were kindly provided by Dr. Steve Pollard. These cells were cultured in adhesion plates treated with laminin A in DMEM/F12 media (Gibco) supplemented with N2 (Gibco), B27 (Gibco), D-(+)-Glucose solution 45% (Sigma-Aldrich, Burlington, MA, USA), basic Fibroblast Growth Factor (Gibco) and epidermal growth factor (Sigma-Aldrich). Normal human astrocytes (NHAs) were purchased from ScienCell and cultured using an astrocyte medium kit (ScienCell, San Diego, CA, USA) supplemented with FBS and Astrocyte Growth Supplement (AGS). All cells were maintained at standard conditions of 37 °C, 95% humidity, 21% O2 and 5% CO2, and cultures were regularly tested for Mycoplasma.
(§2) Cells were seeded in 96-well plates at a density of 1.5 × 10^3 or 5 × 10^3 cells/well (conventional cell lines or GNS and NHAs, respectively) and incubated overnight. […] Then, absorbance at 570 nm was measured. […]

U251 glioma cells = experiment: MTT cell viability, U251; format: cell-based; conditions: Homo sapiens, U-251, 72 h, read-out: IC50 U251 (GBM)
Protocol: as §1, §2

HDAC6 = experiment: Western blot of acetylated α-tubulin (HDAC6 target); format: cell-based, human; conditions: GNS166 and U87 cells
Protocol: Sodium dodecyl sulfate–polyacrylamide gel electrophoresis was performed. Primary antibodies against HDAC1 (Abcam, Cambridge, UK) and HDAC6 (Cell Signaling, Dancers, MA, USA) and their main targets, acetylated H3 (Cell Signaling) and acetylated α-tubulin (Abcam), were used; acetylated lysine (Cell Signaling) and β-actin (Sigma-Aldrich) were used as endogenous controls. Secondary antibodies conjugated to horseradish peroxidase were anti-rabbit or anti-mouse (Cell Signaling). Proteins were detected using the iBright imaging system and NOVEX ECL Chemi Substrate or SuperSignal West Femto Maximum Sensitivity Substrate (ThermoFisher, Waltham, MA, USA).

BChE [2] = molecular target: T1, BChE (Homo sapiens, UniProt P06276); experiment: BChE inhibition, Ellman's colorimetric method; format: biochemical; conditions: for inhibition at 10 µM: read-out: ChE inhibition BChE %
Protocol: (§3) The inhibitory capacity of the compounds on ChEs was assessed using Ellman’s colorimetric method. Briefly, an inhibitor solution containing 10 µM of the MSMs and 0.3 mM DTNB was incubated for 20 min with the enzyme solution ([…]) at 37 °C. […] Inhibition percentages were calculated from these values. […] Further, enzyme kinetics were studied using different substrate and inhibitor concentrations. Results were represented in a Lineweaver–Burk plot using GraphPad Prism, and the constant of inhibition (Ki) was estimated from the point at which the line cuts the x-axis in the secondary plot.

H1299 lung cancer cells = experiment: MTT cell viability, H1299; format: cell-based, human
Protocol: as §1
(§4) Cells were seeded in 96-well plates at a density of 1.5 × 10^3 or 5 × 10^3 cells/well (conventional cell lines or GNS and NHAs, respectively) and incubated overnight. Next, cells were treated with increasing concentrations of the compounds, and after 72 h, they were incubated for 3.5 h with MTT. Then, absorbance at 570 nm was measured. GraphPad Prism software version 10.4.1 was used to calculate the IC50 values.

[3] = test system: RWP1 pancreatic cancer cells; experiment: MTT cell viability, RWP1; format: cell-based; conditions: Homo sapiens, 72 h
Protocol: as §1, §2

BChE [4] = molecular target: T1, BChE; experiment: BChE inhibition, Ellman's colorimetric method; format: biochemical; conditions: read-out: ChE inhibition BChE %
recombinant hMAO-B = molecular target: T2, recombinant hMAO-B (Homo sapiens, UniProt P27338); experiment: MAO-B inhibition assay; format: biochemical; conditions: for MAO inhibition MAO-B % / inhibition at 10 µM: 10 μM
T2 sequence (P27338 1-520): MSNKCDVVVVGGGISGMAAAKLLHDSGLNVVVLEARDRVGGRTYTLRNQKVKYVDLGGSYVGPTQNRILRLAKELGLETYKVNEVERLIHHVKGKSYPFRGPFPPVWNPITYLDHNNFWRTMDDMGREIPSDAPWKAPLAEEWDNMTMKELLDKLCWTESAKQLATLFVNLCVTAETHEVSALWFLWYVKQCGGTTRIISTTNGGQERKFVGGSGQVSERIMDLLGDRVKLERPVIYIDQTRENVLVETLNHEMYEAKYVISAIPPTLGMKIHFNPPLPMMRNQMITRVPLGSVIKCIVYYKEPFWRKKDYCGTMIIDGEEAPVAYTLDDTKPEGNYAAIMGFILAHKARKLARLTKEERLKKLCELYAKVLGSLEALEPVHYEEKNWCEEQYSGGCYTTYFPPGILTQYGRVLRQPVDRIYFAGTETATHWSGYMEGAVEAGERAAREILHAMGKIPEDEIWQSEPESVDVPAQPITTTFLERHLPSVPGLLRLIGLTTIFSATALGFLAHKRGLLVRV
Protocol: […] Next, horseradish peroxidase (200 U/mL), Ampliflu Red (20 mM) and tyramine hydrochloride (100 mM) (Sigma-Aldrich) were added, and absorbance was measured at 570 nm every 5 min for 30 min. The percentage of inhibition was calculated from the absorbance values.

[5] = test system: GNS166, GNS179, U87 and U251 cells; experiment: Immunofluorescence of Ki67, p-H3 and cleaved caspase-3; format: cell-based, human; conditions: 1, 3 and 5 μM, 48 h; for proliferative markers (Ki67- and p-H3-positive cells): all glioma cell types
Protocol: For immunofluorescence assays, cells were seeded at a density of 2 × 10^4 cells/well in 8-well immunofluorescence chambers (LabTek Thermo, Waltham, MA, USA) and incubated overnight. Then, cells were treated for 48 h and fixed with 4% PFA. Primary antibodies against phospho-histone H3 (p-H3) (Abcam), cleaved caspase-3 (Casp3) (R&D Systems, Minneapolis, MN, USA) and Ki67 (Abcam) and secondary antibodies Alexa Fluor anti-mouse and anti-rabbit (Invitrogen, Carlsbad, CA, USA) were used. Nuclei were stained with DAPI (Sigma-Aldrich). Pictures were taken with an Axio Observer 7 epifluorescence microscope, and Qupath version 0.6.0 was used for quantifications. Percentages of Ki67-, p-H3- and Casp3-positive cells were calculated, taking into account the number of nuclei.

[6] = In vivo toxicity, body weight; set-up: species or system athymic nude-Foxn1nu mice; conditions: intraperitoneal, 3 days per week
GNS166 cells = experiment: RNA-seq; format: cell-based, human; conditions: 5 µM
Source text: For transcriptomic analysis, total RNA was extracted and samples were sent to BGI Tech Solutions. […] Genes presenting a fold-change value ≥4 or ≤−4 and an FDR-adjusted p-value < 0.01 were defined as differentially expressed and used to perform downstream enrichment studies.

[7] = test system: NHA primary human astrocytes; experiment: MTT cell viability, NHA; format: cell-based; conditions: Astrocyte, 72 h, non-tumor cells
Protocol: as §1, §2

U87 glioblastoma cells = experiment: MTT cell viability, U87; format: cell-based; conditions: Homo sapiens, 72 h, read-out: IC50 U87 (GBM)
Protocol: as §1, §4

AChE = AChE (Homo sapiens, UniProt P22303); experiment: AChE inhibition, Ellman's colorimetric method; format: biochemical; conditions: read-out: ChE inhibition AChE %
Protocol: as §3

U87 subcutaneous tumors = experiment: Subcutaneous U87 tumor growth and tumor immunohistochemistry; format: in vivo, athymic nude-Foxn1nu mice; conditions: 50 mg/kg i.p.; for final tumor volume: 3 days per week for 4 weeks, control ~750; for decrease in the number of Ki67-positive cells (IHC): resected tumors
Protocol: For carcinogenesis studies, subcutaneous tumor growth experiments were performed via the injection of 5 × 10^5 cells into two bottom flanks of athymic nude-Foxn1^nu mice. Once tumors reached a size of 25–50 mm^3, mice were sorted into different treatment groups based on their gender and tumor size. An external caliper was used for tumor size measurement, and the tumor volume was estimated using the formula V = L·W^2·0.5 (where L is tumor length and W is tumor width). […] Sample size was calculated, taking into account that control groups could have an average size of 700 mm^3 and we wanted to detect a difference of […]. For the cytotoxic experiment, 8 controls and 8 treated animals were used, while for the efficacy experiment 12 control animals and 8 treated animals were used.
Subcutaneous tumors were extracted, fixed with 4% formaldehyde for 48 h and embedded in paraffin. Tumor sections were obtained and stainings for Ki67 (Ab16667, Abcam), acetyl H3 (9649, Cell Signaling) and acetylated α-tubulin (ab179484, Abcam) were performed. A ZEISS Axioscan 7 slide scanner was used to capture images of the stainings, and analyses were performed using Qupath.

[8] = test system: GNS166 patient-derived glioma stem cells; experiment: MTT cell viability, GNS166; format: cell-based; conditions: Homo sapiens, 72 h, read-out: IC50 GNS166 (GBM)
Protocol: as §1, §2

recombinant hMAO-A = molecular target: T3, recombinant hMAO-A (Homo sapiens, UniProt P21397); experiment: MAO-A inhibition assay; format: biochemical; conditions: increasing concentrations of inhibitor
T3 sequence (P21397 1-527): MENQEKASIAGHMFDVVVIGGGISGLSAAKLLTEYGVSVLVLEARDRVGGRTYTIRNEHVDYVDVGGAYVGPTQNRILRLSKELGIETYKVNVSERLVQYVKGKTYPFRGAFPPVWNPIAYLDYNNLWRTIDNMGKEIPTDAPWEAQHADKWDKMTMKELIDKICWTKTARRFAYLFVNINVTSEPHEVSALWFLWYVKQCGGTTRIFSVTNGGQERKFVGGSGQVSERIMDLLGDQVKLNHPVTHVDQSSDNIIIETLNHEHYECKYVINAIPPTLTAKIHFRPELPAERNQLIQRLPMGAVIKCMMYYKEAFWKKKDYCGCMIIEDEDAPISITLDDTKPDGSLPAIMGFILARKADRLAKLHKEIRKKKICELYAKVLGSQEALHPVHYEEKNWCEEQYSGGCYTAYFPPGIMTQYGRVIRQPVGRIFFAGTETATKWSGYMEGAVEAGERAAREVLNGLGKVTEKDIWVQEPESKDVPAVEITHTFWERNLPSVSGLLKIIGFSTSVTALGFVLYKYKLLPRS
Protocol: For MAO inhibition studies, the enzyme solution (0.5 U/mL recombinant hMAO-A or 1.5 U/mL recombinant hMAO-B) was incubated with an inhibitor solution containing 10 µM of the compounds for 30 min at 37 °C. Next, horseradish peroxidase (200 U/mL), Ampliflu Red (20 mM) and tyramine hydrochloride (100 mM) (Sigma-Aldrich) were added, and absorbance was measured at 570 nm every 5 min for 30 min. The percentage of inhibition was calculated from the absorbance values.

[9] = increasing concentrations of inhibitor

T1 sequence (P06276 29-602, species assumed): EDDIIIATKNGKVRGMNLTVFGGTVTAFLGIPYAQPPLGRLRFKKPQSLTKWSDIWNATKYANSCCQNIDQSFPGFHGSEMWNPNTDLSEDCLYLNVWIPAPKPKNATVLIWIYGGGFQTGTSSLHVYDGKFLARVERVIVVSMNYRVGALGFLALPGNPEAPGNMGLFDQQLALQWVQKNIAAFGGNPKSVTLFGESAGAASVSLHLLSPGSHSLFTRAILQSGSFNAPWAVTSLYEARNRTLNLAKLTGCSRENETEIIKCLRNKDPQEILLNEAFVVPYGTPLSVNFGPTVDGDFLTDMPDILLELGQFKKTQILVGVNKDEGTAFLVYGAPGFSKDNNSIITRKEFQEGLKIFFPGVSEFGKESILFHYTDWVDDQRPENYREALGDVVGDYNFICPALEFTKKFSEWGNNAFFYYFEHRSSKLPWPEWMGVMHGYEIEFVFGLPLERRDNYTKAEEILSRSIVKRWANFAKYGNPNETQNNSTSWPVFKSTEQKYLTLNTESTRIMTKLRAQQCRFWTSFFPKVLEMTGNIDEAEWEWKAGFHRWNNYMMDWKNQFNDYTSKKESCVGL
Sequence of AChE (P22303 32-614): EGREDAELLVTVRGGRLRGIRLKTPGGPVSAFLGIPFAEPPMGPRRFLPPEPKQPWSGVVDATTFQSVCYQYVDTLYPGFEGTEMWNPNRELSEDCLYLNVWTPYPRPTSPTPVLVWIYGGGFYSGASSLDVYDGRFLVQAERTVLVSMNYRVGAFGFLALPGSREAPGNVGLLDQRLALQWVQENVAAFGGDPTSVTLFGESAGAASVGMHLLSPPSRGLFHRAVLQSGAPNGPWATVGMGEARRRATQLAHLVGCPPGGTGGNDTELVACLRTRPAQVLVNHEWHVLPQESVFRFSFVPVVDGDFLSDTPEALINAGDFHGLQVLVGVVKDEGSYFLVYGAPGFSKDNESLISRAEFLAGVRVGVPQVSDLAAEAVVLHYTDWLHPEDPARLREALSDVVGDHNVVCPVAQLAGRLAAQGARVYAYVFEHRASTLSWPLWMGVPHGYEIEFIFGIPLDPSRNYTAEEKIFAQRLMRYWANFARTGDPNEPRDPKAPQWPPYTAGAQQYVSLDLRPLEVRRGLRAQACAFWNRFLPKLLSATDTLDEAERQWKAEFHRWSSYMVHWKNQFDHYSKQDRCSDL

SMILES	IC50 (U251 glioma cells) [µM]	levels of acetyl-α-tubulin (HDAC6)	inhibition at 10 µM (BChE [2]; 10 μM) [%]	IC50 (H1299 lung cancer cells; Homo sapiens, NCI-H1299, 72 h) [µM]	inhibition at 1 µM (BChE [4]; 1 μM) [%]	inhibition at 1 µM (recombinant hMAO-B) [%]	MAO inhibition MAO-B % (recombinant hMAO-B) [%]	inhibition at 10 µM (recombinant hMAO-B) [%]	proliferative markers (Ki67- and p-H3-positive cells) [5]	body weight vs control animals [6]	FC of CDKN1A (RNA-seq) (GNS166 cells) [fold]	FC of MKI67 (RNA-seq) (GNS166 cells) [fold]	IC50 [7] [µM]	IC50 (U87 glioblastoma cells) [µM]	inhibition at 10 µM (AChE) [%]	final tumor weight, lower compared to controls (U87 subcutaneous tumors) [%]	final tumor volume (U87 subcutaneous tumors)	decrease in the number of Ki67-positive cells (IHC) (U87 subcutaneous tumors)	IC50 [8] [µM]	also measured
CCCNNC(=O)c1ccc(S(=O)(=O)n2ccc3cc(OCCCN4CCCCC4)ccc32)cc1 [FRB44]	3.1	increased	71	11	20	18	70	69	clear reductions	no statistically significant differences	3.53	0.09	41.4	~1.5	24	62.5	~ 325 mm^3	around 30%	15	IC50 [1]: 4.1 µM; Type of inhibition (BChE [2]): Mixed; ChE inhibition BChE % (BChE [2]; 10 μM): 70%; Type of inhibition (BChE [2]; BChE, Lineweaver-Burk plot): mixed inhibition; Ki (BChE [2]; BChE, secondary plot of Lineweaver-Burk slopes): 1.36 µM; IC50 (BChE [2]; [9]): 8.24 µM; IC50 [3]: 0.7 µM; IC50 (recombinant hMAO-B; [9]): 3.16 µM
C#CCN1CCN(CCCOc2ccc3c(ccn3S(=O)(=O)c3ccc(C(=O)NNCCC)cc3)c2)CC1 [FRB56]	12	increased	15	4.9	10	83	90	89	clear reductions	no statistically significant differences	3.12	0.06	26.6	~1.5	13	61.4	~ 280 mm^3	around 30%	13.7	IC50 (H1299 lung cancer cells; 72 h): < 5 µM; IC50 (recombinant hMAO-A): 1.68 µM
CCN(C)C(=O)Oc1cccc([C@H](C)N(C)C)c1 [Rivastigmine, reference compound]																				inhibition at 10 µM (BChE [2]): 100%; inhibition at 1 µM (BChE [4]): 100%
CN1CCc2c(c3ccccc3n2Cc2ccc(C(=O)NO)cc2)C1 [Tubastatin A]		higher levels of acetylated α-tubulin than the FRBs																		cleaved caspase-3-positive cells [5]: slightly increased
